# Measurements reported in patent publication US20240342156A1, “METHODS FOR TREATING PAIN” (Xenon Pharmaceuticals Inc., priority 2019, published 2024).
# Like-named read-outs stand apart in the source and are kept apart here.
# Columns and labels:
# [1] = system: CD1 mice (acetic acid induced writhing); experiment: Acetic acid writhing (AAW) mouse model of visceral/inflammatory pain; format: in vivo; details: for EC50: Mus musculus, PK/PD correlation; for number of nociceptive events: CD1 mice, 0.4% acetic acid i.p.
# Protocol: Objective: The acetic acid test was performed to assess the potential efficacy of Compound A in the acetic acid writhing (AAW) model of inflammatory pain. The AAW test was performed as described previously ([…] Bi et al., “Visceral hyperalgesia induced by forebrain-specific suppression of native Kv7/KCNQ/M-current in mice.” Mol. Pain 2011, 7:84; Gabriela F. Pavao-de-Souza et al., “Acetic acid- and phenyl-p-benzoquinone-induced overt pain-like behavior depends on spinal activation of MAP kinases, PI3K and microglia in mice.” Pharmacol. Biochem. Behav. 101 (2012) 320-328; […] Lett. 413 (2007) 159-162; Mosad A. Ghareeb et al., “HPLC-ESI-MS/MS Profiling of Polyphenolics of a Leaf Extract from Alpinia zerumbet (Zingiberaceae) and Its Anti-Inflammatory, Anti-Nociceptive, and Antipyretic Activities In Vivo.” Molecules 23 (2018) 3238; and […] et al., “Analgesic Activity of Acid-Sensing Ion Channel 3 (ASIC3) Inhibitors: Sea Anemones Peptides Ugr9-1 and APETx2 versus Low Molecular Weight Compounds.” Mar. Drugs 16 (2018), 500). Study Design: Briefly, acetic acid was injected intraperitoneally at 0.4% concentration in 6-7 week old CD1 mice. After the injection of acetic acid, animals were placed in a chamber and their subsequent writhing behavior was video recorded. A writhe is defined as contraction of abdominal muscles accompanied by elongation of the body and extension of hind limbs or rotation of the trunk. […] were counted between 5-15 min after the injection of acetic acid. Selection of Acetic Acid Dose: Based on the concentration response (0.2-0.8%) of acetic acid in CD1 mice, EC75 concentration (0.4%) was selected to produce optimal writhing response. Diclofenac was used as positive control in the acetic acid model.
# [2] = system: rat spinal nerve ligation (SNL)/Chung model of neuropathic pain; experiment: Spinal nerve ligation (SNL)/Chung model, tactile allodynia, electronic von Frey test on lesioned paw; format: in vivo
# Protocol: Objective: The efficacy of Compound A was assessed using the rat spinal nerve ligation (SNL)/Chung model of neuropathic pain. The SNL model in rats was developed as described previously (Chung J M, Kim H K, Chung K. “Segmental spinal nerve ligation model of neuropathic pain.” Methods Mol. Med. 99 (2004) 35-45).
# Study Design. Briefly, on Day 0, von Frey and cold plate tests were used for baseline measurements of tactile and cold allodynia respectively. Post-baseline measurements, rats (171-209 g male Sprague Dawley) were anesthetized and an incision at the L4-S2 level was performed to expose the left L5 nerve. A ligature was tied tightly around the L5 nerve (Chung et al.; R. Dost et al., “The anti-hyperalgesic activity of Retigabine is mediated by KCNQ potassium channel activation.” Naunyn-Schmiedeberg's Arch. Pharmacol. 369 (2004) 382-390; Gordon Blackburn-Munro et al., “The anticonvulsant retigabine attenuates nociceptive behaviors in rat models of persistent and neuropathic pain.” Eur. J Pharmacol. 460 (2003) 109-116; and Wu Y J et al., “Discovery of (S,E)-3-(2-fluorophenyl)-N-(1-(3-(pyridin-3-yloxy)phenyl)ethyl)-acrylamide as a potent and efficacious KCNQ2 (Kv7.2) opener for the treatment of neuropathic pain.” Bioorg Med. Chem. Lett. 23 (2013) 6188-91). The wound was then sutured and the rats were allowed to recover. On Day 13, post-surgery baselines for tactile and cold allodynia were measured to verify neuropathic pain. Animals were assigned to treatment groups based on the post-surgery baseline score.
# Dosing: For efficacy testing, Compound A was dosed orally once a day for 5 consecutive days from Day 14-18.
# Rats were placed under an inverted acrylic plastic box on a grid floor. The tip of an electronic von Frey probe was then applied with increasing force to the surgery hind paw and the force required to induce paw-withdrawal was automatically recorded. The procedure was carried out 3 times and the mean paw withdrawal force was calculated. The experimenter was double blinded to treatment.
# [3] = Day 18 at 2 h, 8 mg/kg p.o. once daily Day 14-18
# [4] = Day 18 at 2 h, 16 mg/kg p.o. once daily Day 14-18
# [5] = Day 18 at 2 h, 24 mg/kg p.o. once daily Day 14-18
compound,measurement,setting,value
"Cc1cc(N2CCc3cc(F)ccc3C2)cc(C)c1NC(=O)CC(C)(C)C [Compound A, N-[4-(6-fluoro-3,4-dihydro-TH-isoquinolin-2-yl)-2,6-dimethylphenyl]-3,3-dimethylbutanamide]",EC50,"[1]; read-out: EC50 (effective concentration to give a 50% reduction in nociceptive events), concentration in brain",400 nM
same,EC50,"[1]; read-out: EC50 (effective concentration to give a 50% reduction in nociceptive events), concentration in plasma",250 nM
same,number of nociceptive events,"[1]; Study 1, vehicle, 1, 3 and 10 mg/kg",dose-responsive decrease
same,number of nociceptive events,"[1]; Study 2, 10 mg/kg",decrease
same,effect on the tactile allodynia endpoint,"[2]; Day 14 and Day 18, compared to morphine",neither Compound A nor retigabine had much effect
same,"Force inducing paw-withdrawal (g), Delta from baseline compared with Vehicle (p.o.), Δ","[2]; Day 14 at 2 h, 8 mg/kg p.o.",+6.7 g
same,"Force inducing paw-withdrawal (g), Delta from baseline, Mean ± s.e.m.","[2]; Day 14 at 2 h, 8 mg/kg p.o.",+7.0 ± 2.5 g
same,"Force inducing paw-withdrawal (g), Mean ± s.e.m.","[2]; Day 14 at 2 h, 8 mg/kg p.o.",28.5 ± 3.4 g
same,"Force inducing paw-withdrawal (g), Delta from baseline compared with Vehicle (p.o.), Δ","[2]; Day 14 at 2 h, 16 mg/kg p.o.",+5.1 g
same,"Force inducing paw-withdrawal (g), Delta from baseline, Mean ± s.e.m.","[2]; Day 14 at 2 h, 16 mg/kg p.o.",+5.4 ± 2.1 g
same,"Force inducing paw-withdrawal (g), Mean ± s.e.m.","[2]; Day 14 at 2 h, 16 mg/kg p.o.",25.2 ± 1.9 g
same,"Force inducing paw-withdrawal (g), Delta from baseline compared with Vehicle (p.o.), Δ","[2]; Day 14 at 2 h, 24 mg/kg p.o.",+7.2 g
same,"Force inducing paw-withdrawal (g), Delta from baseline, Mean ± s.e.m.","[2]; Day 14 at 2 h, 24 mg/kg p.o.",+7.5 ± 3.1 g
same,"Force inducing paw-withdrawal (g), Mean ± s.e.m.","[2]; Day 14 at 2 h, 24 mg/kg p.o.",29.9 ± 2.9 g
same,"Force inducing paw-withdrawal (g), Delta from baseline compared with Vehicle (p.o.), Δ",[2]; [3],+7.8 g
same,"Force inducing paw-withdrawal (g), Delta from baseline, Mean ± s.e.m.",[2]; [3],+10.6 ± 3.5 g
same,"Force inducing paw-withdrawal (g), Mean ± s.e.m.",[2]; [3],32.1 ± 3.6 g
same,"Force inducing paw-withdrawal (g), Delta from baseline compared with Vehicle (p.o.), Δ",[2]; [4],+2.6 g
same,"Force inducing paw-withdrawal (g), Delta from baseline, Mean ± s.e.m.",[2]; [4],+5.4 ± 2.1 g
same,"Force inducing paw-withdrawal (g), Mean ± s.e.m.",[2]; [4],25.2 ± 2.0 g
same,"Force inducing paw-withdrawal (g), Delta from baseline compared with Vehicle (p.o.), Δ",[2]; [5],+8.7 g
same,"Force inducing paw-withdrawal (g), Delta from baseline, Mean ± s.e.m.",[2]; [5],+11.5 ± 3.0 g
same,"Force inducing paw-withdrawal (g), Mean ± s.e.m.",[2]; [5],33.8 ± 3.6 g
